Source: patent US4843087A (priority 1986, dated 1989)
≈ marks a conversion by molar mass, not a printed value.

How the values were obtained:
Polio 2 = assay: microbe, parasite or virus in culture; assay type: cell-based, poliovirus; settings: Enterovirus C, HeLa, read-out: Polio 2 MIC
[1] = tested on: human rhinovirus (HRV) serotypes; assay: microbe, parasite or virus in culture; assay type: cell-based; settings: for MIC50: read-out: Rhinovirus MIC50; for IC (MIC80 of serotype panel): read-out: Rhinovirus MIC80

| Structure (SMILES) | MIC (Polio 2) | MIC50 [1] | IC (MIC80 of serotype panel) [1] |
| --- | --- | --- | --- |
| Cc1cc(CCCCCOc2c(Cl)cc(C3=NCC(C)O3)cc2Cl)on1 (centres unmarked) [Example 108, 5-{5-[2,6-Dichloro-4-(4,5-dihydro-5-methyl-2-oxazolyl)phenoxy]pentyl}-3-methylisoxazole] | 2.6 µg/mL (≈ 6.54 µM) | 0.13 µg/mL (≈ 0.327 µM) | 0.34 µg/mL |
| Cc1cc(CCCOCOCCOc2ccc(C3=NCCO3)cc2)on1 [Example 73, 5-{3-[[2-[4-(4,5-Dihydro-2-oxazolyl)phenoxy]ethoxy]methoxy]propyl}-3-methylisoxazole] | 0.46 µg/mL (≈ 1.28 µM) | – | – |
| CC(=O)OCc1cc(CCCCCCCOc2ccc(C3=NCCO3)cc2)on1 [Example 28, 5-{7-[4-(4,5-Dihydro-2-oxazolyl)phenoxy]heptyl}-3-isoxazolemethanol acetate] | 0.007 µg/mL | – | – |
| Cc1cc(CCCCCCCOc2ccc(C3=NCC(C)O3)cc2)on1 (centres unmarked) [34(b), 5-{7-[4-(4,5-Dihydro-5-methyl-2-oxazolyl)phenoxy]heptyl}-3-methylisoxazole] | 0.49 µg/mL (≈ 1.37 µM) | 0.2 µg/mL (≈ 0.561 µM) | 26.5 µg/mL |
| Cc1cc(CCCCCOc2ccc(-c3ncc(C)o3)cc2)on1 [93(f), 3-Methyl-5-{5-[4-(5-methyl-2-oxazolyl)phenoxy]pentyl}-isoxazole] | 0.09 µg/mL (≈ 0.276 µM) | 0.09 µg/mL (≈ 0.276 µM) | 1.3 µg/mL |
| Cc1cc(CCCCCOc2ccc(-c3cnco3)cc2)on1 [Example 96(b), 3-Methyl-5-{5[4-(5-oxazolyl)phenoxy]pentyl}isoxazole] | 0.095 µg/mL (≈ 0.304 µM) | 1.4 µg/mL (≈ 4.48 µM) | 2.5 µg/mL |
| Cc1cc(CCCCCOc2c(F)cc(C3=NCCO3)cc2F)on1 [159(c), 5-{5-[4-(4,5-Dihydro-2-oxazolyl)-2,6-difluorophenoxy]-pentyl}-3-methylisoxazole] | 0.12 µg/mL (≈ 0.342 µM) | 0.15 µg/mL (≈ 0.428 µM) | 0.66 µg/mL |
| Cc1cc(CCCCCOc2ccc(C3=NCCO3)c(C)c2)on1 [Example 51, 5-{5-[4-(4,5-Dihydro-2oxazolyl)-3-methylphenoxy]pentyl}-3-methylisoxazole] | 0.045 µg/mL (≈ 0.137 µM) | 0.56 µg/mL (≈ 1.71 µM) | 1.6 µg/mL |
| OCc1cc(CCCCCOc2c(Cl)cc(C3=NCCO3)cc2Cl)on1 [Example 116, 5-{5-[2,6-Dichloro-4-(4,5-dihydro-2-oxazolyl)phenoxy]pentyl}-3-isoxazolemethanol] | 3.1 µg/mL (≈ 7.76 µM) | 0.13 µg/mL (≈ 0.326 µM) | 0.5 µg/mL |
| Cc1cc(CCCCCOc2c(C)cc(C(=O)NCCCl)cc2Cl)on1 [154(b), 3-Chloro-N-(2-chloroethyl)-5-methyl-4 -{[5-(3-methyl-5-isoxazolyl)pentyl]oxy}benzamide] | 1.13 µg/mL (≈ 2.83 µM) | 0.17 µg/mL (≈ 0.426 µM) | 0.63 µg/mL |
| CCc1cc(C(=O)NCCCl)cc(C)c1OCCCCCc1cc(C)no1 [157(c), N-(2-Chloroethyl)-3-ethyl-5-methyl-4-{[5-(3-methyl-5-isoxazolyl)pentyl]oxy}benzamide] | 2.1 µg/mL (≈ 5.34 µM) | 0.49 µg/mL (≈ 1.25 µM) | 1.2 µg/mL |
| Cc1cc(CCCCCOc2ccc(C3=NCCO3)c(O)c2)on1 [Example 52, 5-{5-[4-(4,5-Dihydro-2-oxazolyl)-3-hydroxyphenoxy]pentyl}-3-methylisoxazole] | 0.003 µg/mL (≈ 0.00908 µM) | 0.084 µg/mL (≈ 0.254 µM) | 1.9 µg/mL |
| CC(=O)c1cc(C2=NCCO2)ccc1OCCCCCc1cc(C)no1 [Example 63, 5-{5-[4-(4,5-Dihydro-2-oxazolyl)-2-acetylphenoxy]pentyl}-3-methylisoxazole] | 2.3 µg/mL (≈ 6.45 µM) | 0.55 µg/mL (≈ 1.54 µM) | 1.05 µg/mL |
| Cc1cc(CCCCCOc2ccc(C3=NCCO3)cc2C)on1 [Example 46, 5-{5-[4-(4,5-Dihydro-2-oxazolyl)-2-methylphenoxy]pentyl}-3-methylisoxazole] | 0.1 µg/mL (≈ 0.304 µM) | 0.09 µg/mL (≈ 0.274 µM) | 0.2 µg/mL |
| Cc1noc(CCCCCCCOc2ccc(C3=NCCO3)cc2)c1CCl [Example 35, 4-Chloromethyl-5-{7-[4-(4,5-dihydro-2-oxazolyl)phenoxy]heptyl}-3-methylisoxazole] | 0.05 µg/mL (≈ 0.128 µM) | 1.39 µg/mL (≈ 3.54 µM) | 1.8 µg/mL |
| Cc1cc(CCCCCOc2c(Cl)cc(C3=NCCO3)cc2[N+](=O)[O-])on1 [153(d), 5-{5-[2-Chloro-4-(4,5-dihydro-2-oxazolyl)-6-nitrophenoxy]pentyl}-3-methylisoxazole] | 0.4 µg/mL (≈ 1.02 µM) | 0.09 µg/mL (≈ 0.229 µM) | 0.18 µg/mL |
| Cc1cc(CCCCCOc2c(C)cc(-c3cocn3)cc2C)on1 [Example 144, 5-{5-[2,6-Dimethyl-4-(4-oxazolyl)phenoxy]pentyl}-3-methylisoxazole] | 12.5 µg/mL (≈ 36.7 µM) | 0.14 µg/mL (≈ 0.411 µM) | 1.1 µg/mL |
| Cc1noc(CCCCCCCOc2ccc(C3=NCCO3)cc2Cl)c1CO [Example 43] | 0.3 µg/mL (≈ 0.737 µM) | 0.31 µg/mL (≈ 0.762 µM) | 1 µg/mL |
| Cc1cc(CCCCCOc2c(C)cc(-c3cnco3)cc2C)on1 [97(b), 5-{5-[2,6-Dimethyl-4-(5-oxazolyl)phenoxy]pentyl}-3-methylisoxazole] | 5.4 µg/mL (≈ 15.9 µM) | 0.135 µg/mL (≈ 0.397 µM) | 0.76 µg/mL |
| C=CCc1cc(C2=NCCO2)ccc1OCCCCCc1cc(C)no1 [Example 61, 5-{5-[4-(4,5-Dihydro-2-oxazolyl)-2-(2-propenyl)phenoxy]pentyl}-3-methylisoxazole] | 0.54 µg/mL (≈ 1.52 µM) | 0.39 µg/mL (≈ 1.1 µM) | 0.75 µg/mL |

| Structure (SMILES) | MIC (Polio 2) | MIC50 [1] | IC (MIC80 of serotype panel) [1] |
| --- | --- | --- | --- |
| CCc1cc(C2=NCCO2)ccc1OCCCCCc1cc(C)no1 [Example 60, 5-{5-[4-(4,5-Dihydro-2-oxazolyl)-2-ethylphenoxy]pentyl}-3-methylisoxazole] | 0.24 µg/mL (≈ 0.701 µM) | 0.1 µg/mL (≈ 0.292 µM) | 0.7 µg/mL |
| Cc1cc(CCCCCCCOc2ccc(-c3nc(C)co3)cc2)on1 [Example 135, 5-{7-[4-(4-Methyl-2-oxazolyl)phenoxy]heptyl}-3-methylisoxazole] | 2.6 µg/mL (≈ 7.34 µM) | 0.335 µg/mL (≈ 0.945 µM) | 0.6 µg/mL |
| Cc1cc(CCCCCOc2ccc(C3=NCCO3)cc2Br)on1 [Example 44, 5-{5-[2-Bromo-4-(4,5-dihydro-2-oxazolyl)phenoxy]pentyl}-3-methylisoxazole] | 0.3 µg/mL (≈ 0.763 µM) | 0.08 µg/mL (≈ 0.203 µM) | 0.54 µg/mL |
| Cc1cc(CCCCCCCOc2ccc(C3=NCCO3)cc2C=O)on1 [Example 69, 5-{7-[4-(4,5-Dihydro-2-oxazolyl)-2-formylphenoxy]heptyl}-3-methylisoxazole] | 0.44 µg/mL (≈ 1.19 µM) | – | – |
| Cc1cc(CCCCCCCOc2ccc(C3=NC(CO)CO3)cc2)on1 (centres unmarked) [Example 33, 5-{7-[4-(4,5-Dihydro-4-hydroxymethyl-2-oxazolyl)phenoxy]heptyl}-3-methylisoxazole] | 3 µg/mL (≈ 8.05 µM) | 51 µg/mL (≈ 137 µM) | 99 µg/mL |
| Cc1cc(CCCCCOc2ccc(-c3nc(C)co3)cc2)on1 [Example 133, 5-{5-[4-(4-Methyl-2-oxazolyl)phenoxy]pentyl}-3-methylisoxazole] | 0.09 µg/mL (≈ 0.276 µM) | 0.16 µg/mL (≈ 0.49 µM) | 0.68 µg/mL |
| Cc1cc(COCCCCCOc2ccc(C3=NCCO3)cc2)on1 [Example 99, 5-{[[5-[4-(4,5-Dihydro-2-oxazolyl)phenoxy]pentyl]oxy]methyl}-3-methylisoxazole] | 0.27 µg/mL (≈ 0.784 µM) | 1.3 µg/mL (≈ 3.77 µM) | 2.3 µg/mL |
| CCC(=O)Nc1cc(C2=NCCO2)ccc1OCCCCCc1cc(C)no1 [Example 102, 5-{5-[4-(4,5-Dihydro-2-oxazolyl)-2-(propionylamino)phenoxy]pentyl}-3-methylisoxazole] | 12.5 µg/mL (≈ 32.4 µM) | 12.5 µg/mL (≈ 32.4 µM) | 99 µg/mL |
| Cc1cc(C(O)CCCCCCOc2ccc(C3=NCCO3)cc2)on1 (stereo not drawn) [Example 12, α-{6-[4-(4,5-dihydro-2-oxazolyl)phenoxy]hexyl}-3-methyl-5-isoxazolemethanol] | 0.08 µg/mL (≈ 0.223 µM) | – | – |
| C=Cc1cc(C2=NCCO2)ccc1OCCCCCc1cc(C)no1 [Example 141, 5-{5-[2-Ethenyl-4-(4,5-dihydro-2-oxazolyl)phenoxy]pentyl}-3-methylisoxazole] | 0.23 µg/mL (≈ 0.676 µM) | 0.25 µg/mL (≈ 0.734 µM) | 0.54 µg/mL |
| COc1cc(C2=NCCO2)cc(OC)c1OCCCCCc1cc(C)no1 [158(d), 5-{5-[4-(4,5-Dihydro-2-oxazolyl)-2,6-dimethoxyphenoxy]pentyl}-3-methylisoxazole] | 1 µg/mL (≈ 2.67 µM) | 2.1 µg/mL (≈ 5.61 µM) | 5 µg/mL |
| Cc1cc(CCCCCOc2ccc(C3=NCCO3)cc2Cl)no1 [Example 37, 3-{5-[2-Chloro-4-(4,5-dihydro-2-oxazolyl)phenoxy]pentyl}-5-methylisoxazole] | 0.4 µg/mL (≈ 1.15 µM) | – | – |
| Cc1cc(CCCCCCCCOc2ccc(C3=NCCO3)cc2Cl)on1 [Example 22, 5-{8-[2-Chloro-4-(4,5-dihydro-2-oxazolyl)phenoxy]octyl}-3-methylisoxazole] | 1.1 µg/mL (≈ 2.81 µM) | – | – |
| Cc1cc(CCCCCOc2cccc(C3=NCCO3)c2)on1 [Example 30, 5-{5-[3-(4,5-Dihydro-2-oxazolyl)phenoxy]pentyl}-3-methylisoxazole] | > 0.2 µg/mL | – | – |
| Cc1cc(CCCCOc2ccc(C3=NCCO3)cc2)on1 [21 (b), 5-{4-[4-(4,5-Dihydro-2-oxazolyl)phenoxy]butyl}-3-methylisoxazole] | 0.5 µg/mL (≈ 1.66 µM) | – | – |
| Cc1cc(CCCCCCCOc2ccc(C3=NC[C@@H](C)O3)cc2)on1 [Example 123, (R)-5-{7-[4-(4,5-Dihydro-5-methyl-2-oxazolyl)phenoxy]heptyl}-3-methylisoxazole] | 1.01 µg/mL (≈ 2.83 µM) | – | – |
| OCc1cc(CCCCCCCOc2ccc(C3=NCCO3)cc2)on1 [Example 11, 5-{7-[4-(4,5-Dihydro-2-oxazolyl)phenoxy]heptyl}-3-isoxazolemethanol] | 0.02 µg/mL (≈ 0.0558 µM) | – | – |
| Cc1cc(CCCCCCCOc2ccc(-c3ncco3)cc2)on1 [87(b), 3-Methyl-5-{7-[4-(2-oxazolyl)phenoxy]heptyl}isoxazole] | 0.04 µg/mL (≈ 0.118 µM) | – | – |
| Cc1cc(CCC2CCC(COc3ccc(C4=NCCO4)cc3)CC2)on1 (centres unmarked) [101 (b), 5-{2-[4-[[4-(4,5-Dihydro-2-oxazolyl)phenoxy]methyl]cyclohexyl]ethyl}-3-methylisoxazole] | 0.65 µg/mL (≈ 1.76 µM) | – | – |
| Cc1cc(CCCCCOc2ccc(-c3nc(C)c(C)o3)cc2C(F)(F)F)on1 [Example 91, 5-{5-[4-(4,5-Dimethyl-2-oxazolyl)-2-trifluoromethylphenoxy]pentyl}-3-methylisoxazole] | – | 0.75 µg/mL (≈ 1.84 µM) | 1.4 µg/mL |
